# Patent US12517131B2, “Methods for labeling eukaryotic cells from a multicellular organism as well as for treating and/or diagnosing a cancer using modified monosaccharide compounds” (DIAMIDEX, priority 2019, dated 2026)
# “And” between values parts separate entries of the source, which are not always exact repeats. Equal values may be shown once.
# Experiments:
# [1] = tested on: human urinary bladder carcinoma (T24); test: Labeling of bladder cells with Ara-N3 probe, copper-free click, fluorescence microscopy; assay type: cell-based; conditions: 24 h, Ara-N3 10 mM
# Experimental: (§1) The human uroepithelial cells (SV-HUC-1) and the human urinary bladder carcinoma (T24) were purchased from ATCC (Manassas, Van USA). These cell lines were grown in RPMI 1640 with Glutamine 1 medium (Lonza Biowhttaker) supplemented by 10% fetal bovine serum (FBS) (VWR international S.A.S). The culture medium was changed every two days. The passaging of cells was performed using Tryp-LE express 1× (Gibco). The cell viability was estimated using trypan blue exclusion tests.
# (§2) SV-HUC-1 and T24 cells were seeded in 24-well plates, at density of 5*10^4 cells/well. Then, cells were incubated at 37° C., 5% in CO2 during 24 hours. Thereafter, the culture medium of each well was discarded, and attached cells were washed twice with Phosphate Buffer Salin (PBS) (Lonza Biowhittaker), before to be exposed to Ara-N3 probe (10 mM). Probe was added to culture medium with different FBS concentrations (3% and 10%). Then, cells were incubated at 37° C., 5% in CO2 for 24 hours again. The control cells were cultured using culture medium supplemented with 5% or 10% FBS, without addition of Ara-N3.
# (§3) The fluorescence Assimilation of Ara-N3 probes was visualized by copper-free click chemistry using sulfo-DBCO-biotin (1 mM), followed by labeling with a mouse anti-biotin Alexa Fluor 488 antibody conjugate (0.62 mg/ml stock, Jackson ImmunoResearch, dilution 1/10). The click reaction was carry-out as following: At 24 h incubation times, the culture mediums were removed, and attached cells were washed twice with PBS. Cells were detached with Tryp-LE, washed twice with PBS, and centrifuged at 13000 g for 2 min. The cellular pellets were resuspended with 10 μL of sulfo-DBCO-biotin and incubated 30 min in the dark, and at 37 C°. Then, cells were washed twice with PBS, centrifuged, and cellular pellets were resuspended with 10 μL of a mouse anti-biotin antibody solution, before to be incubated at room temperature in dark. Thereafter, cells were washed twice with PBS and small cellular suspension spots (5 μL) were put in Polysine® adhesion slides (VWR international S.A.S), in the dark room, until dry (20 min). The spots were fixed with 4% paraformaldehyde during 20 min, in dark and room temperature. Slides were then washed twice with PBS, before recovering with square cover glasses (VWR international S.A.S) using glycerol Mounting Medium (Dako) and stored at 4° C. in dark room.
# (§4) The fluorescence acquisition was recorded using Olympus Microscopy IX83 (Olympus Life Science) equipped with a 60×/1.3 […]/1.4 SRI (silicone refractive index) objective, and Hamamatsu oreca flash 4 LT camera with 109 nm/pixel calibrated pixel size. The excitation light was emitted by X-CITE 120LED using the AT180/30X excited filter and signal was monitored using AT535/40m emission filter. Green light exposition time was 600 ms and white light exposition time was determined by DIC methods at […]. The acquisition area size analyzed by the Celisens dimension V1.16 software was different depending on the cell number containing in the spot.
# (§5) The images were processed using count and measure unit of the Cellsens dimension V1.16 software. The background noise was deleted as follows: ROI were first defined on the background of the image and the average pixel intensity was calculated. The value thus obtained was subtracted from all pixels of the image. The fluorescence intensity of each cell was determined from a threshold set at a value of 3030. All pixels that have intensity below 3030 were not counted.
# [2] = tested on: human uroepithelial cells (SV-HUC-1); test: as above; assay type: cell-based; conditions: 24 h, Ara-N3 10 mM
# Experimental: as §1, §2, §3, §4, §5
# [3] = tested on: A549 (vs Bronchial epithelial cell); test: Labeling of cancer and non-cancer cells, fluorescence signal ratio; assay type: cell-based, human; conditions: A549 (doubling time 40 h) vs Bronchial epithelial cell (40 h); Ara-N3 10 mM; FBS 10%; test at 2 doubling time
# Experimental: as §3, §4, §5
# (§6) The same experiments as in example 2 with other cancer and corresponding non cancer cells were performed. The culture media were adapted to the tested cells and supplemented by 10% fetal bovine serum (FBS). Ara-N3 probe (10 mM) was added to culture media with FBS concentration (10%). The incubation times corresponded to one doubling time or twice doubling time of the tested cells (see table below).
# (§7) The fluorescence signal cancer/non cancer ratios were calculated based on fluorescence intensities obtained with Ara-N3 tested on cancer and corresponding non cancer cells.
# HL-60 (vs Lymphocytes T) = test: as above; assay type: cell-based, human; conditions: HL-60 (28 h) vs Lymphocytes T (24 h); Ara-N3 10 mM; FBS 10%; one doubling time
# Experimental: as §3, §4, §5, §6, §7
# [4] = tested on: OCI-Ly3 (vs Isolated primary B cells); test: as above; assay type: cell-based, human; conditions: OCI-Ly3 (24 h) vs Isolated primary B cells; Ara-N3 10 mM; FBS 10%
# Experimental: as §3, §4, §5, §6, §7
# PANC (vs HPNE) = test: as above; assay type: cell-based, human; conditions: PANC (32 h) vs HPNE (32 h); Ara-N3 10 mM; FBS 10%; one doubling time
# Experimental: as §3, §4, §5, §6, §7
# SK-BR-7 (vs HME-1) = test: as above; assay type: cell-based, human; conditions: SK-BR-7 (30 h) vs HME-1 (30 h); Ara-N3 10 mM; FBS 10%; one doubling time
# Experimental: as §3, §4, §5, §6, §7
smiles,measurement,setting,value
"[N-]=[N+]=NC[C@H]1OC(O)[C@@H](O)[C@@H]1O (stereo partly drawn) [Ara-N3, 5-azido-5-deoxy-D-arabinofuranose]","labelled cells %, T24 %","[1]; Intensity/μm^2 0-50000, FBS 3%, n = 226",2.21%
same,"labelled cells %, T24 %","[1]; Intensity/μm^2 0-50,000, FBS 10%, n = 282",1.42%
same,"labelled cells %, T24 %","[1]; Intensity/μm^2 50,000-100,000, FBS 3%, n = 226",2.65%
same,"labelled cells %, T24 %","[1]; Intensity/μm^2 50,000-100,000, FBS 10%, n = 282",2.13%
same,"labelled cells %, T24 %","[1]; Intensity/μm^2 100,000-150,000, FBS 3%, n = 226",2.65%
same,"labelled cells %, T24 %","[1]; Intensity/μm^2 100,000-150,000, FBS 10%, n = 282",2.48%
same,"labelled cells %, T24 %","[1]; Intensity/μm^2 150,000-200,000, FBS 3%, n = 226",5.75%
same,"labelled cells %, T24 %","[1]; Intensity/μm^2 150,000-200,000, FBS 10%, n = 282",1.42%
same,"labelled cells %, T24 %","[1]; Intensity/μm^2 200,000-250,000, FBS 3%, n = 226",3.98%
same,"labelled cells %, T24 %","[1]; Intensity/μm^2 200,000-250,000, FBS 10%, n = 282",2.13%
same,"labelled cells %, T24 %","[1]; Intensity/μm^2 250,000-300,000, FBS 3%, n = 226",3.54%
same,"labelled cells %, T24 %","[1]; Intensity/μm^2 250,000-300,000, FBS 10%, n = 282",1.42%
same,"labelled cells %, T24 %","[1]; Intensity/μm^2 300,000-350,000, FBS 3%, n = 226",2.21%
same,"labelled cells %, T24 %","[1]; Intensity/μm^2 300,000-350,000, FBS 10%, n = 282",1.77%
same,"labelled cells %, T24 %","[1]; Intensity/μm^2 350,000-400,000, FBS 3%, n = 226",3.98%
same,"labelled cells %, T24 %","[1]; Intensity/μm^2 350,000-400,000, FBS 10%, n = 282",2.48%
same,"labelled cells %, T24 %","[1]; Intensity/μm^2 400,000-450,000, FBS 3%, n = 226",2.65%
same,"labelled cells %, T24 %","[1]; Intensity/μm^2 400,000-450,000, FBS 10%, n = 282",3.19%
same,"labelled cells %, T24 %","[1]; Intensity/μm^2 450,000-500,000, FBS 3%, n = 226",3.54%
same,"labelled cells %, T24 %","[1]; Intensity/μm^2 450,000-500,000, FBS 10%, n = 282",2.13%
same,"labelled cells %, T24 %","[1]; Intensity/μm^2 >500,000, FBS 3%, n = 226",66.81%
same,"labelled cells %, T24 %","[1]; Intensity/μm^2 >500,000, FBS 10%, n = 282",79.42% and 79.43%
same,"labelled cells %, SV-HUC1 %","[2]; Intensity/μm^2 0-50000, FBS 3%, n = 239",62.34%
same,"labelled cells %, SV-HUC1 %","[2]; Intensity/μm^2 0-50,000, FBS 10%, n = 301",73.45%
same,"labelled cells %, SV-HUC1 %","[2]; Intensity/μm^2 50,000-100,000, FBS 3%, n = 239",2.51%
same,"labelled cells %, SV-HUC1 %","[2]; Intensity/μm^2 50,000-100,000, FBS 10%, n = 301",4.32%
same,"labelled cells %, SV-HUC1 %","[2]; Intensity/μm^2 100,000-150,000, FBS 3%, n = 239",2.09%
same,"labelled cells %, SV-HUC1 %","[2]; Intensity/μm^2 100,000-150,000, FBS 10%, n = 301",1.66%
same,"labelled cells %, SV-HUC1 %","[2]; Intensity/μm^2 150,000-200,000, FBS 3%, n = 239",1.26%
same,"labelled cells %, SV-HUC1 %","[2]; Intensity/μm^2 150,000-200,000, FBS 10%, n = 301",1.33%
same,"labelled cells %, SV-HUC1 %","[2]; Intensity/μm^2 200,000-250,000, FBS 3%, n = 239",1.67%
same,"labelled cells %, SV-HUC1 %","[2]; Intensity/μm^2 200,000-250,000, FBS 10%, n = 301",0.66%
same,"labelled cells %, SV-HUC1 %","[2]; Intensity/μm^2 250,000-300,000, FBS 3%, n = 239",3.77%
same,"labelled cells %, SV-HUC1 %","[2]; Intensity/μm^2 250,000-300,000, FBS 10%, n = 301",0.66%
same,"labelled cells %, SV-HUC1 %","[2]; Intensity/μm^2 300,000-350,000, FBS 3%, n = 239",0.42%
same,"labelled cells %, SV-HUC1 %","[2]; Intensity/μm^2 300,000-350,000, FBS 10%, n = 301",0.33%
same,"labelled cells %, SV-HUC1 %","[2]; Intensity/μm^2 350,000-400,000, FBS 3%, n = 239",0.42%
same,"labelled cells %, SV-HUC1 %","[2]; Intensity/μm^2 350,000-400,000, FBS 10%, n = 301",0.66%
same,"labelled cells %, SV-HUC1 %","[2]; Intensity/μm^2 400,000-450,000, FBS 3%, n = 239",0.84%
same,"labelled cells %, SV-HUC1 %","[2]; Intensity/μm^2 400,000-450,000, FBS 10%, n = 301",0.66%
same,"labelled cells %, SV-HUC1 %","[2]; Intensity/μm^2 450,000-500,000, FBS 3%, n = 239",2.93%
same,"labelled cells %, SV-HUC1 %","[2]; Intensity/μm^2 450,000-500,000, FBS 10%, n = 301",1.33%
same,"labelled cells %, SV-HUC1 %","[2]; Intensity/μm^2 >500,000, FBS 3%, n = 239",21.76%
same,"labelled cells %, SV-HUC1 %","[2]; Intensity/μm^2 >500,000, FBS 10%, n = 301",14.62%
same,Cancer/Non Cancer Ratio (fluorescence signal),[3],7.7
same,Cancer/Non Cancer Ratio (fluorescence signal),HL-60 (vs Lymphocytes T),1.6
same,Cancer/Non Cancer Ratio (fluorescence signal),[4],6.2
same,Cancer/Non Cancer Ratio (fluorescence signal),PANC (vs HPNE),1.8
same,Cancer/Non Cancer Ratio (fluorescence signal),SK-BR-7 (vs HME-1),2.1
